Tests used:
Rattus norvegicus [1] = assay: Toxicity in […] normotensive Wistar rat assessed as mean arterial pressure at 40 mg/kg, ip after 15 mins (reference value: 93.81 +/- 1.543 mmHg); format: organism-based, Artery; design: dose 40 mg/kg, route intraperitoneal; conditions: in vivo, 0.25 h
Rattus norvegicus [2] = assay: Antihypertensive activity in Wistar rat assessed as mean arterial pressure at 40 mg/kg, ip after 45 mins (reference value: 193.96 +/- 0.865 mmHg); format: functional, Artery; conditions: route intraperitoneal
Rattus norvegicus [3] = assay: Toxicity in anesthetized-normotensive Wistar rat assessed as heart rate at 40 mg/kg, ip measured immediately at 0 min (reference value: 316.62 +/- 9.643 bpm); format: organism-based; design: dose 40 mg/kg, route intraperitoneal; conditions: in vivo, 0 h
Rattus norvegicus [4] = assay: Antihypertensive activity in Wistar rat assessed as mean arterial pressure at 40 mg/kg, ip after 60 mins (reference value: 195.11 +/- 0.531 mmHg); format: functional, Artery; conditions: route intraperitoneal
Rattus norvegicus [5] = assay: Toxicity in anesthetized-normotensive Wistar rat assessed as heart rate at 40 mg/kg, ip after 45 mins (reference value: 316.82 +/- 8.452 bpm); format: organism-based; design: dose 40 mg/kg, route intraperitoneal; conditions: in vivo, 0.75 h
Rattus norvegicus [6] = assay: Antihypertensive activity in Wistar rat assessed as mean arterial pressure at 40 mg/kg, ip measured immediately at 0 min (reference value: 194.08 +/- 1.962 mmHg); format: functional, Artery; conditions: route intraperitoneal
Rattus norvegicus [7] = assay: Toxicity in anaesthetized-Wistar rat assessed as QRS ECG interval at 40 mg/kg, ip after 15 mins (reference value: 18.9 +/- 1.563 ms); format: organism-based; design: dose 40 mg/kg, route intraperitoneal; conditions: in vivo, 0.25 h
Rattus norvegicus [8] = assay: Toxicity in […] normotensive Wistar rat assessed as mean arterial pressure at 40 mg/kg, ip measured immediately at 0 min (reference value: 94.21 +/- 2.065 mmHg); format: organism-based, Artery; design: dose 40 mg/kg, route intraperitoneal; conditions: in vivo, 0 h
Rattus norvegicus [9] = assay: Antiarrhythmic activity in barium chloride-induced Wistar rat assessed as increase in mortality time at 40 mg/kg, ip administered 60 mins before barium chloride challenge (reference value: 682.8 +/- 9.656 secs); format: functional, Heart; conditions: route intraperitoneal
Rattus norvegicus [10] = assay: Toxicity in anaesthetized-Wistar rat assessed as P-Q ECG interval at 40 mg/kg, ip after 30 mins (reference value: […] +/- 0.927 ms); format: organism-based; design: dose 40 mg/kg, route intraperitoneal; conditions: in vivo, 0.5 h
Rattus norvegicus [11] = assay: Antihypertensive activity in Wistar rat assessed as mean arterial pressure at 40 mg/kg, ip after 15 mins (reference value: 195.68 +/- 1.623 mmHg); format: functional, Artery; conditions: route intraperitoneal
Rattus norvegicus [12] = assay: Toxicity in anaesthetized-Wistar rat assessed as P-Q ECG interval at 40 mg/kg, ip measured immediately at 0 min (reference value: 52.4 +/- 0.927 ms); format: organism-based; design: dose 40 mg/kg, route intraperitoneal; conditions: in vivo, 0 h
Rattus norvegicus [13] = assay: Toxicity in anaesthetized-Wistar rat assessed as Q-T ECG interval at 40 mg/kg, ip after 45 mins (reference value: 78.8 +/- 0.927 ms); format: organism-based; design: dose 40 mg/kg, route intraperitoneal; conditions: in vivo, 0.75 h
Rattus norvegicus [14] = assay: Toxicity in anaesthetized-Wistar rat assessed as QRS ECG interval at 40 mg/kg, ip after 30 mins (reference value: 19.9 +/- 1.393 ms); format: organism-based; design: dose 40 mg/kg, route intraperitoneal; conditions: in vivo, 0.5 h
Rattus norvegicus [15] = assay: Toxicity in anaesthetized-Wistar rat assessed as Q-T ECG interval at 40 mg/kg, ip after 15 mins (reference value: 79.4 +/- 1.270 ms); format: organism-based; design: dose 40 mg/kg, route intraperitoneal; conditions: in vivo, 0.25 h
Rattus norvegicus [16] = assay: Toxicity in […] normotensive Wistar rat assessed as mean arterial pressure at 40 mg/kg, ip after 45 mins (reference value: 94.83 +/- 0.943 mmHg); format: organism-based, Artery; design: dose 40 mg/kg, route intraperitoneal; conditions: in vivo, 0.75 h
Rattus norvegicus [17] = assay: Toxicity in anaesthetized-Wistar rat assessed as P-Q ECG interval at 40 mg/kg, ip after 45 mins (reference value: 52.5 +/- 0.780 ms); format: organism-based; design: dose 40 mg/kg, route intraperitoneal; conditions: in vivo, 0.75 h
Rattus norvegicus [18] = assay: Toxicity in anaesthetized-Wistar rat assessed as Q-T ECG interval at 40 mg/kg, ip measured immediately at 0 min (reference value: 78.8 +/- 1.030 ms); format: organism-based; design: dose 40 mg/kg, route intraperitoneal; conditions: in vivo, 0 h
Rattus norvegicus [19] = assay: Toxicity in anaesthetized-Wistar rat assessed as P-Q ECG interval at 40 mg/kg, ip after 15 mins (reference value: 52.2 +/- 1.158 ms); format: organism-based; design: dose 40 mg/kg, route intraperitoneal; conditions: in vivo, 0.25 h
Rattus norvegicus [20] = assay: Toxicity in anesthetized-normotensive Wistar rat assessed as heart rate at 40 mg/kg, ip after 30 mins (reference value: 317.68 +/- 7.631 bpm); format: organism-based; design: dose 40 mg/kg, route intraperitoneal; conditions: in vivo, 0.5 h
Rattus norvegicus [21] = assay: Toxicity in […] normotensive Wistar rat assessed as mean arterial pressure at 40 mg/kg, ip after 30 mins (reference value: 94.68 +/- 1.213 mmHg); format: organism-based, Artery; design: dose 40 mg/kg, route intraperitoneal; conditions: in vivo, 0.5 h
Rattus norvegicus [22] = assay: Toxicity in anaesthetized-Wistar rat assessed as QRS ECG interval at 40 mg/kg, ip measured immediately at 0 min (reference value: 19.6 +/- 1.142 ms); format: organism-based; design: dose 40 mg/kg, route intraperitoneal; conditions: in vivo, 0 h
Rattus norvegicus [23] = assay: Toxicity in anaesthetized-Wistar rat assessed as QRS ECG interval at 40 mg/kg, ip after 60 mins (reference value: 19.3 +/- 0.873 ms); format: organism-based; design: dose 40 mg/kg, route intraperitoneal; conditions: in vivo, 1 h
Rattus norvegicus [24] = assay: Toxicity in […] normotensive Wistar rat assessed as mean arterial pressure at 40 mg/kg, ip after 60 mins (reference value: 95.07 +/- 1.973 mmHg); format: organism-based, Artery; design: dose 40 mg/kg, route intraperitoneal; conditions: in vivo, 1 h
Rattus norvegicus [25] = assay: Toxicity in anaesthetized-Wistar rat assessed as Q-T ECG interval at 40 mg/kg, ip after 30 mins (reference value: 78.3 +/- 0.860 ms); format: organism-based; design: dose 40 mg/kg, route intraperitoneal; conditions: in vivo, 0.5 h
Rattus norvegicus [26] = assay: Antihypertensive activity in Wistar rat assessed as mean arterial pressure at 40 mg/kg, ip after 30 mins (reference value: 194.72 +/- 1.002 mmHg); format: functional, Artery; conditions: route intraperitoneal
Rattus norvegicus [27] = assay: Toxicity in anaesthetized-Wistar rat assessed as QRS ECG interval at 40 mg/kg, ip after 45 mins (reference value: 20.2 +/- 1.348 ms); format: organism-based; design: dose 40 mg/kg, route intraperitoneal; conditions: in vivo, 0.75 h
Rattus norvegicus [28] = assay: Toxicity in anesthetized-normotensive Wistar rat assessed as heart rate at 40 mg/kg, ip after 60 mins (reference value: 314.96 +/- 9.442 bpm); format: organism-based; design: dose 40 mg/kg, route intraperitoneal; conditions: in vivo, 1 h
Rattus norvegicus [29] = assay: Toxicity in anaesthetized-Wistar rat assessed as Q-T ECG interval at 40 mg/kg, ip after 60 mins (reference value: 79.7 +/- 0.965 ms); format: organism-based; design: dose 40 mg/kg, route intraperitoneal; conditions: in vivo, 1 h
Rattus norvegicus [30] = assay: Toxicity in anesthetized-normotensive Wistar rat assessed as heart rate at 40 mg/kg, ip after 15 mins (reference value: 313.93 +/- 9.912 bpm); format: organism-based; design: dose 40 mg/kg, route intraperitoneal; conditions: in vivo, 0.25 h
Rattus norvegicus [31] = assay: Toxicity in anaesthetized-Wistar rat assessed as P-Q ECG interval at 40 mg/kg, ip after 60 mins (reference value: […] +/- 0.924 ms); format: organism-based; design: dose 40 mg/kg, route intraperitoneal; conditions: in vivo, 1 h
Rattus norvegicus [32] = assay: Antiarrhythmic activity in barium chloride-induced Wistar rat assessed as increase in appearance time of arrhythmia at 40 mg/kg, ip administered 60 mins before barium chloride challenge (reference value: 129.4 +/- 4.373 sec); format: functional, Heart; conditions: route intraperitoneal

SMILES	Activity (Rattus norvegicus [1]) [mmHg]	Activity (Rattus norvegicus [2]) [mmHg]	Activity (Rattus norvegicus [3]) [bpm]	Activity (Rattus norvegicus [4]) [mmHg]	Activity (Rattus norvegicus [5]) [bpm]	Activity (Rattus norvegicus [6]) [mmHg]	Activity (Rattus norvegicus [7]) [min]	Activity (Rattus norvegicus [8]) [mmHg]	Time (Rattus norvegicus [9]) [s]	Activity (Rattus norvegicus [10]) [min]	Activity (Rattus norvegicus [11]) [mmHg]	Activity (Rattus norvegicus [12]) [ms]	Activity (Rattus norvegicus [13]) [min]	Activity (Rattus norvegicus [14]) [ms]	Activity (Rattus norvegicus [15]) [min]	Activity (Rattus norvegicus [16]) [mmHg]	Activity (Rattus norvegicus [17]) [min]	Activity (Rattus norvegicus [18]) [min]	Activity (Rattus norvegicus [19]) [min]	Activity (Rattus norvegicus [20]) [bpm]	other results
O=C1/C(=C\c2ccccc2)S/C(=N\c2ccccc2)N1CC(O)CN1CCNCC1 (centres undefined)	78.76	128.32	302.12	159.08	269.73	196.63	21.6	92.33	1380.5	56.4	176.65	54.3	82.4	23.8	80.6	62.53	56.9	80.2	54.7	259.31	Activity (Rattus norvegicus [21]): 62.26 mmHg; Activity (Rattus norvegicus [22]): 20.8 min; Activity (Rattus norvegicus [23]): 22.4 min; Activity (Rattus norvegicus [24]): 70.27 mmHg; Activity (Rattus norvegicus [25]): 81.8 min; Activity (Rattus norvegicus [26]): 153.16 mmHg; Activity (Rattus norvegicus [27]): 23.7 min; Activity (Rattus norvegicus [28]): 298.12 bpm; Activity (Rattus norvegicus [29]): 82.1 ms; Activity (Rattus norvegicus [30]): 292.46 bpm; Activity (Rattus norvegicus [31]): 55.1 min; Time (Rattus norvegicus [32]): 379.7 s
O=C1/C(=C\c2ccccc2)S/C(=N\c2ccccc2)N1CC(O)CN1CCN(C2CCCCC2)CC1 (centres undefined)	85.61	138.63	324.13	158.39	294.42	195.99	21.4	93.99	944.9	52.3	185.69	51.2	0.00122	21.9	72.9	64.01	50.6	72.8	51.7	289.54	Activity (Rattus norvegicus [21]): 77.84 mmHg; Activity (Rattus norvegicus [22]): 20 min; Activity (Rattus norvegicus [23]): 22.6 min; Activity (Rattus norvegicus [24]): 75.43 mmHg; Activity (Rattus norvegicus [25]): 73.3 min; Activity (Rattus norvegicus [26]): 151.12 mmHg; Activity (Rattus norvegicus [27]): 22.8 min; Activity (Rattus norvegicus [28]): 303.42 bpm; Activity (Rattus norvegicus [29]): 71.2 ms; Activity (Rattus norvegicus [30]): 312.65 bpm; Activity (Rattus norvegicus [31]): 51.3 min; Time (Rattus norvegicus [32]): 297.5 s
